Test results: US8673843B2, “NMDA receptors modulators and uses thereof” (Northwestern University, priority 2010, dated 2014)
Residues, ends and D or L forms follow the SMILES beside them.

Target: NMDA receptor (Rattus norvegicus, UniProt P35439)
Assay: [3H] MK-801 binding assay
Settings: 50 μM glutamate; for Potency: rat forebrain crude synaptic membranes, [3H]MK-801 5 nM
Experimental: Male 2-3 month old rats were decapitated without anesthesia by guillotine, and the brains were rapidly removed (˜90 sec) and whole cortex and hippocampus dissected on an ice cold platform, frozen on dry ice, and stored at −80° C. Samples were homogenized in 20 volumes of ice cold 5 mM Tris-HCl pH 7.4 by Brinkman Polytron and pelleted 48,000×g for 20 min at 4° C., and washed an additional 3 times as described above. Membranes were then resuspended in 5 mM EDTA and 15 mM Tris-HCl pH 7.4 and incubated for 1 hr at 37° C., membranes pelleted at 48,000×g for 20 min at 4° C., snap frozen in liquid nitrogen, and stored at −80° C. On the day of the experiment, membranes were thawed at room temperature and washed an additional 7 times in ice cold 5 mM Tris-HCl (pH 7.4) as described above. After the last wash, membranes were resuspended in assay buffer (5 mM Tris-acetate pH 7.4), and protein content was determined by the BCA assay.
[^3H] […] Then the tubes were washed three times with assay buffer (5 mM Tris-acetate PH 7.4), and the filters were analyzed by liquid scintillation to calculate the disintegrations per minute (DPM). Zero levels were determined in the absence of any glycine ligand and in the presence of 30 μM 5,7-Dichlorokynurenic acid (5,7-DCKA). Maximal stimulation was measured in the presence of 1 mM glycine. 50 μM glutamate was present in all samples.
For each data point (i.e., a single concentration of the test compound), the % maximal [^3H]
The efficacy for each compound, expressed as the % increase in [^3H]

## C[C@@H](O)[C@H](N)C(=O)N1CCC[C@H]1C(=O)N1CCC[C@H]1C(=O)N[C@@H](CO)C(N)=O [Compound B, (S)—N—((S)-1-amino-3-hydroxy-1-oxopropan-2-yl)-1-((S)-1-((2S,3R)-2-amino-3-hydroxybutanoyl)pyrrolidine-2-carbonyl)pyrrolidine-2-carboxamide] (H-TPPS-NH2)
best-fit top value, relative to 1 mM glycine maximal stimulation
  Efficacy (% Increase in [3H] MK-801 Binding): 24%
  Potency: 6 pM

## C[C@@H](O)[C@H](N)C(=O)N1CCC[C@H]1C(=O)N1CCCC1(Cc1ccccc1)C(=O)N[C@H](C(N)=O)[C@@H](C)O (stereo partly drawn) [E, N-((2S,3R)-1-amino-3-hydroxy-1-oxobutan-2-yl)-1-((S)-1-((2S,3R)-2-amino-3-hydroxybutanoyl)-pyrrolidine-2-carbonyl)-2-benzylpyrrolidine-2-carboxamide]
  Potency: 0.2 pM

## C[C@@H](O)[C@H](NC(=O)[C@@H]1CCCN1C(=O)[C@@H]1CCCN1C(=O)[C@@H](N)CO)C(N)=O [Compound A, (S)—N-((2S,3R)-1-amino-3-hydroxy-1-oxobutan-2-yl)-1-((S)-1-((S)-2-amino-3-hydroxypropanoyl)pyrrolidine-2-carbonyl)pyrrolidine-2-carboxamide] (H-SPPT-NH2)
  Potency: 5 pM

## NC(=O)[C@H](CO)NC(=O)[C@@H]1CCCN1C(=O)[C@@H]1CCCN1C(=O)[C@@H](N)CO [Compound C, (S)—N—((S)-1-amino-3-hydroxy-1-oxopropan-2-yl)-1-((S)-1-((S)-2-amino-3-hydroxy-propanoyl)-pyrrolidine-2-carbonyl)-pyrrolidine-2-carboxamide] (H-SPPS-NH2)
  Potency: 16 pM
